# Source: the supplement of paper PMC4977894
# ± gives the standard deviation of the averaged measurements.
# Tests used:
# [1] = tested on: Homo sapiens (human subject panel, olfactory perception); test: perceived odor intensity rating (rating 0-100); higher = stronger perceived smell
# How it was run: (§1)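 Across ten visits of 100 stimuli, 55 healthy human subjects aged 18–50 sniffed 1 mL of each molecule in paraffin oil in randomized order, at both high and low concentrations. The six lowest performers were excluded. Whenever a subject reported smelling a stimulus, they rated it on a computerized slider that started at 50 and had to be moved, and positions were converted to a 0–100 scale. Each familiarity, intensity and pleasantness figure is a mean across subjects.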
# [2] = tested on: Homo sapiens (human subject panel, olfactory perception); test: perceived odor familiarity rating (rating 0-100); higher = more familiar
# How it was run: as §1
# [3] = tested on: Homo sapiens (human subject panel, olfactory perception); test: perceived odor pleasantness rating (rating 0-100); higher = more pleasant
# How it was run: as §1
# [4] = odor dilution in paraffin oil: 1/10
# [5] = odor dilution in paraffin oil: 1/1,000
# [6] = odor dilution in paraffin oil: 1/100,000
# [7] = odor dilution in paraffin oil: 1/10,000,000
Compound,"perceived odor intensity rating [1, 4]","perceived odor intensity rating [1, 5]","perceived odor familiarity rating [2, 4]","perceived odor familiarity rating [2, 5]","perceived odor pleasantness rating [3, 4]","perceived odor pleasantness rating [3, 5]","perceived odor intensity rating [1, 6]","perceived odor familiarity rating [2, 6]","perceived odor pleasantness rating [3, 6]","perceived odor intensity rating [1, 7]","perceived odor familiarity rating [2, 7]","perceived odor pleasantness rating [3, 7]"
OCC(O)CO [glycerol],31.2 ± 33,26.8 ± 29,33.6 ± 28,31.8 ± 30,48.1 ± 31,42.7 ± 25,–,–,–,–,–,–
CCCCCCCO [heptanol (replicate)],–,72.2 ± 24,–,51.9 ± 33,–,48.5 ± 29,29.7 ± 30,39.9 ± 29,58 ± 23,–,–,–
CCCCCCCO [heptanol],–,62.7 ± 27,–,50.3 ± 30,–,52.7 ± 25,30.3 ± 28,44.9 ± 31,59.6 ± 23,–,–,–
CCCCCCCOC(C)=O [heptyl acetate],82.2 ± 18,37.1 ± 31,55.8 ± 34,42.6 ± 31,53.4 ± 32,61.6 ± 22,–,–,–,–,–,–
CCCCCCO [hexanol],–,61.5 ± 29,–,58.7 ± 28,–,58.2 ± 27,26 ± 27,42.7 ± 27,49.4 ± 26,–,–,–
CCCCCCOC(C)=O [hexyl acetate],–,58 ± 30,–,58.2 ± 30,–,63.1 ± 24,12.7 ± 17,29.9 ± 26,53.7 ± 23,–,–,–
CCCCCCOC(=O)CCC [hexyl butyrate],–,45.6 ± 34,–,44.1 ± 30,–,34.1 ± 25,19.4 ± 21,35.8 ± 27,43.9 ± 16,–,–,–
CC(C)CCO [isoamyl alcohol],–,63.5 ± 32,–,50.8 ± 33,–,51 ± 33,23.4 ± 26,25.9 ± 21,39.2 ± 25,–,–,–
CC(=O)OCC(C)C [isobutyl acetate],–,75.9 ± 22,–,72.1 ± 24,–,56 ± 28,33.5 ± 30,39.2 ± 27,50 ± 22,–,–,–
CC=Cc1ccc(OC(C)=O)c(OC)c1 [isoeugenol acetate],57.6 ± 30,46.1 ± 28,57.1 ± 31,58.8 ± 28,58.3 ± 26,66.8 ± 25,–,–,–,–,–,–
CC(=O)OCCC(C)C [isopentyl acetate],–,58.3 ± 31,–,55.5 ± 32,–,59.3 ± 25,45.9 ± 30,51 ± 35,65.2 ± 23,–,–,–
CC(=O)OC(C)C [isopropyl acetate (replicate)],–,49.4 ± 34,–,46.2 ± 33,–,41.3 ± 23,22.7 ± 22,44.5 ± 32,49.9 ± 25,–,–,–
CC(=O)OC(C)C [isopropyl acetate],–,13.3 ± 20,–,40.1 ± 30,–,51.5 ± 21,20.2 ± 23,47.6 ± 27,50 ± 23,–,–,–
CC(C)CC(=O)O [isovaleric acid],–,–,–,–,–,–,82 ± 20,54.3 ± 33,12.9 ± 19,58.5 ± 30,48 ± 31,20.7 ± 22
CC1(C)C(=O)[C@@]2(C)CC[C@H]1C2 [l-fenchone],–,64.5 ± 31,–,58.3 ± 31,–,44.6 ± 28,9.45 ± 15,33.1 ± 32,49.3 ± 26,–,–,–
C=CC1(C)CCC(C(C)(C)O)O1 (configuration not stated) [linalool oxide],–,44.4 ± 31,–,42.8 ± 31,–,46.5 ± 26,15.9 ± 19,37 ± 28,49.6 ± 19,–,–,–

Compound,"perceived odor intensity rating [1, 4]","perceived odor intensity rating [1, 5]","perceived odor familiarity rating [2, 4]","perceived odor familiarity rating [2, 5]","perceived odor pleasantness rating [3, 4]","perceived odor pleasantness rating [3, 5]","perceived odor intensity rating [1, 6]","perceived odor familiarity rating [2, 6]","perceived odor pleasantness rating [3, 6]","perceived odor intensity rating [1, 7]","perceived odor familiarity rating [2, 7]","perceived odor pleasantness rating [3, 7]"
COc1cccc(C=O)c1 [m-Anisaldehyde],–,48.7 ± 31,–,47.4 ± 29,–,53 ± 24,12.2 ± 19,41.3 ± 30,54 ± 25,–,–,–
CO [methanol],35 ± 30,18 ± 24,37.9 ± 29,30.9 ± 25,39.5 ± 23,42.7 ± 22,–,–,–,–,–,–
COC(=O)c1ccco1 [methyl 2-furoate],–,62.6 ± 25,–,43.2 ± 29,–,37.2 ± 24,33.8 ± 34,39.5 ± 28,48.7 ± 22,–,–,–
COC(C)=O [methyl acetate],66.2 ± 28,23.9 ± 29,57.2 ± 28,29.6 ± 31,26.9 ± 20,36.4 ± 19,–,–,–,–,–,–
COC(=O)c1ccccc1 [methyl benzoate],–,–,–,–,–,–,36.1 ± 30,35.1 ± 32,45.9 ± 23,14.2 ± 22,38 ± 32,47.8 ± 23
CCCCCC(=O)OC [methyl caproate],–,68.4 ± 26,–,56.4 ± 31,–,56.2 ± 29,30.5 ± 29,36.3 ± 31,51.8 ± 22,–,–,–
C/C=C/c1ccc(OC)c(OC)c1 [methyl isoeugenol],–,37.9 ± 31,–,48.2 ± 31,–,58.8 ± 26,25.4 ± 35,30.1 ± 24,39.5 ± 23,–,–,–
COC(=O)c1ccccc1O [methyl salicylate],–,71.9 ± 22,–,63.9 ± 32,–,60.8 ± 26,16.7 ± 22,38.1 ± 32,56.7 ± 21,–,–,–
CSC [methyl sulfide],–,56.4 ± 35,–,43.7 ± 34,–,33.6 ± 27,58.8 ± 32,47.3 ± 32,33.4 ± 27,–,–,–
CC(=O)c1c(C)c([N+](=O)[O-])c(C(C)(C)C)c([N+](=O)[O-])c1C [musk ketone],48.1 ± 34,49.3 ± 32,53 ± 30,50.2 ± 27,65.2 ± 23,63.1 ± 25,–,–,–,–,–,–
CCCCCCCCCO [nonanol],–,66.4 ± 26,–,46.9 ± 29,–,35.8 ± 24,28.5 ± 30,35.6 ± 31,42.9 ± 25,–,–,–
COc1ccccc1C=O [o-Anisaldehyde (replicate)],–,72.1 ± 23,–,50.7 ± 31,–,40.8 ± 28,36 ± 32,46 ± 29,40.3 ± 24,–,–,–
COc1ccccc1C=O [o-Anisaldehyde],–,70 ± 25,–,45.8 ± 27,–,32 ± 22,38.5 ± 27,41.2 ± 27,38 ± 22,–,–,–
Cc1ccccc1C=O [o-Tolualdehyde],–,78.1 ± 21,–,58.9 ± 32,–,52.7 ± 30,37.2 ± 31,49.1 ± 31,60.2 ± 24,–,–,–
Cc1ccccc1S [o-Toluenethiol],–,–,–,–,–,–,72.8 ± 24,54.8 ± 28,24.8 ± 24,30.2 ± 31,36.9 ± 24,47.9 ± 18
CCCCCCCC=O [octanal],–,66.7 ± 26,–,50.5 ± 31,–,33.1 ± 22,55 ± 28,62.9 ± 29,65 ± 25,–,–,–
